Laboratory results as given in US20100099642A1, “TGF-BETA STIMULANT AND FURTHER AGENT TO REDUCE SIDE EFFECTS” (TCP Innovations Limited, priority 2007, published 2010).

Assays:
[1] = system: tgfb1 mRNA; assay: tgfb1 mRNA level by quantitative PCR in human aortic vascular smooth muscle cells; format: cell-based; settings: 24 hrs, normalised to TBP, vs vehicle
Method: (1995) Cardiovasc. Res. 29:848-55). […] The cells were then incubated for either 24 hrs or 72 hrs depending on the experiment. All treatment conditions were established in triplicate. The level of mRNA for tgfb1, tgfb2 and tgfb3 were estimated by quantitative PCR. The media was removed and RNA was carefully prepared using the Ambion RNAqueous4PCR kit (Ambion#1914) in accordance with the manufacturer's instructions. The purity of the RNA and the quantity was assessed spectrophotometrically. […] This analysis results in both a gel-like image as well as electrophoretic data. Indications of RNA degradation are: (a) decreasing ratio of ribosomal bands (b) additional peaks bellow the ribosomal bands (c) Decrease in overall RNA signal (d) shift towards shorter fragments. All the mRNA samples used in the experiments presented here passed this RNA quality control step. Next, the RNA was converted to cDNA using the ABI High-Capacity cDNA Archive Kit, in accordance with manufacturer's instructions. The qPCR assay was then set up as follow: all cDNA samples were diluted to 180 μl total volume using Molecular grade water. Samples were vortexed to ensure thorough mixing. cDNA was aliquoted into ABI 384 well plates using a multi-channel pipette, 4.5 μl of sample into each well. Samples were assayed in triplicate (that is, nine determinations in total were made for each condition, being three separate assays on each of three replicate culture wells). The assay mix and Universal Master Mix were prepared and aliquoted across the 384 well plates 5.5 μl in each well, using a single channel pipette. The final composition of each reaction (10 μl) being: Primer/Probe assay mix (×20)=0.5 μl; Universal Master Mix=5 μl; cDNA=4.5 μl. The plates were then heat sealed using Abgene clear seal strong plastic heat seals, and then cycled and scanned using the […] under the following conditions: 95° C. for 10 minutes to activate the AmpliTaq GOLD, then 40 cycles of: 95° C. for 15 Sec (Denaturation), 60° C. for 60 […]). […] Quantitative PCR was performed using several primer/probe sets. […] We used both commercially available primer/probe sets (ABI Taqman pre-validated assays), using both available sets in the ABI database for tgfb1 and tgfb2, as well as the single available set for tgfb3. In addition, we used our own manual design probe/primer set for each of tgfb1, tgfb2 and tgfb3. For normalisation, we used TATA-binding protein (TBP) as the primary normalisation standard, with GAPDH as an alternative for confirmation, using ABI Taqman pre-validated probe/primer sets. […] Neither TBP nor GAPDH mRNA levels are affected by TGF-beta and are therefore equally suitable, however TBP was selected as the primary normalisation standard because the absolute level of mRNA in most cell types is similar to that of the TGF-beta isoforms, resulting in lower errors on calculating the ratio, and improving the power of the experiment. In all quantitative PCR experiments, several additional controls were included: firstly, a control for each sample is run with no reverse transcription to ensure the mRNA sample is not contaminated with genomic DNA (although the manual design probe/primer sets were all selected to cross an exon/exon boundary, ensuring no detectable amplicon is produced from genomic DNA templates). Secondly, a control reaction is run using serial 2-fold dilutions of a standard cDNA preparation (prepared from commercially available IMAGE clones). This control ensures that the results for the unknown samples are obtained in the linear range of the amplification process, and are therefore truly quantitative. Failure of either control led to the repeat of the entire experiment. Typically, the half maximal signal was obtained after 20-30 amplification cycles. […]

[2] = system: TGF-beta activity; assay: TGF-beta activity estimated by smooth muscle cell proliferation (CPD with/without neutralising anti-TGF-beta antibody); format: cell-based, human; settings: for TGF-beta activity: ratio of CPD in the absence vs presence of neutralising anti-TGF-beta antibody: 0 μM T, 72 hrs; for effect of lower doses on CPD and hence TGF-beta activity: doses below 10 μM Tamoxifen / below 100 μM aspirin
Method: The cells were cultured (37° C.; 5% CO2) in DMEM+20% foetal calf serum (FCS), and subcultured every 5 days at 1:2 dilution, using 0.02% trypsin/EDTA (Gibco).
For the experiments, the cells were subcultured into 12-well cluster plates at 1×10^5 cells/cm^2, and allowed to grow for 24 hrs. […] The cells were then incubated for either 24 hrs or 72 hrs depending on the experiment. All treatment conditions were established in triplicate.
Finally, TGF-beta activity was estimated by the direct effects on smooth muscle cell proliferation within the assay. For these experiments, the test agents were added, in triplicate, to cells both in the presence and absence of a neutralising antibody to TGF-beta (AB-100-NA; R&D Systems at 10 μg/ml, which is able to neutralise at least 25 ng/ml recombinant active TGF-beta1; R&D Systems). After 72 hrs incubation, the cells are washed and then released completely using 0.02% trypsin/EDTA (Gibco) at 37° C. for 10 mins, then counted manually using a haemocytometer. Importantly, the number of cells at 0 hrs must also be determined (using the same counting method, on a replicate set of three wells plated out specifically for the purpose). For each treatment condition, the TGF-beta-dependent inhibition of proliferation is expressed as the fold increase in the cumulative population doubling time in the absence of the neutralising antibody compared to the cumulative population doubling time in the presence of the neutralising antibody. […] Failure of either control led to the repeat of the experiment.

Row | Structure (SMILES) | Level of tgfb1 mRNA, estimated by qPCR ([1]; 10 μM A) [fold-change] | Level of tgfb1 mRNA, estimated by qPCR ([1]; 33 μM A) [fold-change] | Level of tgfb1 mRNA, estimated by qPCR ([1]; 100 μM A) [fold-change] | TGF-beta activity: ratio of CPD in the absence vs presence of neutralising anti-TGF-beta antibody ([2]; 10 μM A) [fold] | TGF-beta activity: ratio of CPD in the absence vs presence of neutralising anti-TGF-beta antibody ([2]; 33 μM A) [fold] | TGF-beta activity: ratio of CPD in the absence vs presence of neutralising anti-TGF-beta antibody ([2]; 100 μM A) [fold] | TGF-beta activity: ratio of CPD in the absence vs presence of neutralising anti-TGF-beta antibody ([2]; 100 μM A, listed as A) [fold] | effect of lower doses on CPD and hence TGF-beta activity [2] | Level of tgfb1 mRNA, estimated by qPCR ([1]; 3.3 μM T) [fold-change] | Level of tgfb1 mRNA, estimated by qPCR ([1]; 10 μM T) [fold-change] | Level of tgfb1 mRNA, estimated by qPCR ([1]; 33 μM T, listed as T) [fold-change] | Level of tgfb1 mRNA, estimated by qPCR ([1]; 33 μM T, listed as TMX)
1 | CC(=O)Oc1ccccc1C(=O)O [Aspirin, acetylsalicylic acid] | 1.01 ± 0.04 | 0.93 ± 0.11 | 1.06 ± 0.08 | 1.05 ± 0.09 | 1.13 ± 0.17 | 1.25 | 1.25 ± 0.06 | no statistically significant effect | – | – | – | –
2 | CC/C(=C(\c1ccccc1)c1ccc(OCCN(C)C)cc1)c1ccccc1 [Tamoxifen] | – | – | – | – | – | – | – | no statistically significant effect | 0.95 ± 0.16 | 1.27 ± 0.09 | 1.41 ± 0.08 | approximately 1.4 fold-change
